From ChEMBL document CHEMBL5465560, “Selectivity Literature for EUbOPEN Chemogenomic Library” (2024) come the findings set out here.

Data set [1] has as its target Tyrosine-protein kinase Blk (Homo sapiens) (UniProt P51451). In words: Selectivity interaction (Ambit KINOMEscan and KiNATiv profiling in Jurkat cells) EUB0000090b BLK. The format is cell-based. Conditions: at 1 µM.
The target in data set [2] is T1, Phosphatidylinositol 5-phosphate 4-kinase type-2 gamma (Homo sapiens) (UniProt Q8TBX8).
T1 sequence (whole entry): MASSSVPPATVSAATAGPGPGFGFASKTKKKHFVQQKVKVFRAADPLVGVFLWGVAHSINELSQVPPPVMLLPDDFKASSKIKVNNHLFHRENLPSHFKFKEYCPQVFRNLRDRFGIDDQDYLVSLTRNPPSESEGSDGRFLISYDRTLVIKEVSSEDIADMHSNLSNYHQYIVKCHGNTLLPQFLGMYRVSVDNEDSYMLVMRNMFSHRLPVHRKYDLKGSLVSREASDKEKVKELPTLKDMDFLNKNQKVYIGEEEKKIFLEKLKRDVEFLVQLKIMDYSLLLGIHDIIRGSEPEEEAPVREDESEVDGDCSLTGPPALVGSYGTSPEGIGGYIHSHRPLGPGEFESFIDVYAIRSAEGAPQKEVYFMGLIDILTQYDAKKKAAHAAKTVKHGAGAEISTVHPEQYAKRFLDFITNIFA
In words: Selectivity interaction (Ambit KINOMEscan and KiNATiv profiling in Jurkat cells) EUB0000090b PIP4K2C. The format is cell-based. Conditions: at 1 µM.

Data set [3] has as its target ALK tyrosine kinase receptor (Homo sapiens, UniProt Q9UM73). The settings on record: at 10 µM.
Data set [4] concerns the target Phosphatidylinositol 4,5-bisphosphate 3-kinase catalytic subunit beta isoform (Homo sapiens) (UniProt P42338). As to the kind of experiment: Selectivity interaction (KinomeScan (DiscoverX)) EUB0000666a PIK3CB. Conditions: at 10 µM.
The target of data set [5] is Serine/threonine-protein kinase 32C (Homo sapiens) (UniProt Q86UX6). In words: Selectivity interaction (KinomeScan (DiscoverX)) EUB0000229b STK32C. The settings on record: at 10 µM.
Sequence of Serine/threonine-protein kinase 32C (Homo sapiens) (Q86UX6 whole entry): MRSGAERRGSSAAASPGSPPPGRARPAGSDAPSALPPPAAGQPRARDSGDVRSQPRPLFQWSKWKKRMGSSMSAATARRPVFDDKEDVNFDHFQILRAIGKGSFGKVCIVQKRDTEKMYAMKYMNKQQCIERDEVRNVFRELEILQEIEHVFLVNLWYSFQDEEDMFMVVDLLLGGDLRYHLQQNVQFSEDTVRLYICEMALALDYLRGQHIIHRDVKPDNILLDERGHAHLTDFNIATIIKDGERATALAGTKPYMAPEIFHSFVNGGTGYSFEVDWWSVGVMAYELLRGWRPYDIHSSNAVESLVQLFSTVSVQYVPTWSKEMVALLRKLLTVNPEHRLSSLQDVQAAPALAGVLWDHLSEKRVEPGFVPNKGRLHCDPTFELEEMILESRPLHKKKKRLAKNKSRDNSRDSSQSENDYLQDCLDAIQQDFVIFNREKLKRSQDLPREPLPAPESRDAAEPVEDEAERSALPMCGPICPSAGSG
Data set [6] has as its target MAP kinase-activated protein kinase 2 (Homo sapiens, UniProt P49137). As to the kind of experiment: Selectivity interaction (KinomeScan (DiscoverX)) EUB0001079a MAPKAPK2. Conditions: at 1 µM.
For a further data set, the target named is KCNE1 (Homo sapiens, UniProt P15382). As to the kind of experiment: Selectivity interaction (Panel of kinases, GPCRs, ion channels and transporters (enzymatic assay)) EUB0000266bCl KCNE1.
Data set [7] concerns the target T2, Phosphatidylinositol 5-phosphate 4-kinase type-2 alpha (Homo sapiens) (UniProt P48426).
T2 sequence (whole entry): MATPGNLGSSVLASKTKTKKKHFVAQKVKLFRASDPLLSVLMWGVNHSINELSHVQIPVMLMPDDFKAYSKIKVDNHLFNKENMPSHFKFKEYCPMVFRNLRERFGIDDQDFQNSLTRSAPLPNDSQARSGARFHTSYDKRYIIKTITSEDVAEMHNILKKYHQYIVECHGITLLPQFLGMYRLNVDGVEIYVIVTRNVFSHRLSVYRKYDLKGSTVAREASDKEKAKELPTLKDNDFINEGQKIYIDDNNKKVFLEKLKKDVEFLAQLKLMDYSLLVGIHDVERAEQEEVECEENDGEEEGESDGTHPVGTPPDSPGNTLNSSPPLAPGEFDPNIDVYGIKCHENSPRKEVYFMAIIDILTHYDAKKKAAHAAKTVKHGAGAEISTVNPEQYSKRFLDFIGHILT
In words: Selectivity interaction (ActivX KiNativ screen (kinase selectivity in THP-1 cell lysates)) EUB0000639a PIP4K2A. The format is subcellular. The settings on record: lysate.

Data set [8] deals with T3, Scaffold protein ILK (Homo sapiens) (UniProt Q13418).
T3 sequence (whole entry): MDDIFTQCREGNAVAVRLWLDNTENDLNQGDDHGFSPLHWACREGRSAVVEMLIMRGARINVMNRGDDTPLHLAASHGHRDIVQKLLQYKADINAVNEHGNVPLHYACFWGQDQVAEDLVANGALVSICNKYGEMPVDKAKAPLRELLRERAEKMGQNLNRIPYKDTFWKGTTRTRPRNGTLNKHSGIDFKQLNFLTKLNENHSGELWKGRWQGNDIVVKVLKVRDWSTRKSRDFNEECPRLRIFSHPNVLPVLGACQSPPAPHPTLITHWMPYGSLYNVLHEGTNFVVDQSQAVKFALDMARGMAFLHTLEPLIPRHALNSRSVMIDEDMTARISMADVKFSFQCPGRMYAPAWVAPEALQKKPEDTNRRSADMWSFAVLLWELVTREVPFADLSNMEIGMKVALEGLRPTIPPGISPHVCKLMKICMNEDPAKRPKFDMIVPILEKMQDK
As to the kind of experiment: Selectivity interaction (ActivX KiNativ screen (kinase selectivity in THP-1 cell lysates)) EUB0000639a ILK. The settings on record: lysate, at 0.04 µM. The format is subcellular.

For data set [9], the target named is Cyclin-dependent kinase 14 (Homo sapiens) (UniProt O94921). The settings on record: at 10 µM.
Sequence of Cyclin-dependent kinase 14 (Homo sapiens) (O94921 whole entry): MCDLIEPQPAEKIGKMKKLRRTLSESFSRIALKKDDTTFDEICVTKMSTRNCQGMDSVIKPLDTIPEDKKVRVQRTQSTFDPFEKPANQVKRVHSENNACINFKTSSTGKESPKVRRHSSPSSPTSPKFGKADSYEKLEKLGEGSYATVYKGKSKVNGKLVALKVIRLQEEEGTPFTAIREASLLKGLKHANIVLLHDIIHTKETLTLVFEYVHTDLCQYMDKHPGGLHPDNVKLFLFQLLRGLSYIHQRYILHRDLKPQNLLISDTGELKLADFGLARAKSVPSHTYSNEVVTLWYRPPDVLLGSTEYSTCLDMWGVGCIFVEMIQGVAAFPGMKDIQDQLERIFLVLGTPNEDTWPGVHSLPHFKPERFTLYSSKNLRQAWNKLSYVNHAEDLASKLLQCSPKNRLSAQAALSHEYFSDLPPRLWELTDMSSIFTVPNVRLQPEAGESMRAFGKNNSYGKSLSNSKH
Data set [10] deals with Microtubule-associated serine/threonine-protein kinase 1 (Homo sapiens) (UniProt Q9Y2H9). In words: Selectivity interaction (KinomeScan (DiscoverX)) EUB0001049a MAST1. The settings on record: at 1 µM.
Sequence of Microtubule-associated serine/threonine-protein kinase 1 (Homo sapiens) (Q9Y2H9 whole entry, looked up): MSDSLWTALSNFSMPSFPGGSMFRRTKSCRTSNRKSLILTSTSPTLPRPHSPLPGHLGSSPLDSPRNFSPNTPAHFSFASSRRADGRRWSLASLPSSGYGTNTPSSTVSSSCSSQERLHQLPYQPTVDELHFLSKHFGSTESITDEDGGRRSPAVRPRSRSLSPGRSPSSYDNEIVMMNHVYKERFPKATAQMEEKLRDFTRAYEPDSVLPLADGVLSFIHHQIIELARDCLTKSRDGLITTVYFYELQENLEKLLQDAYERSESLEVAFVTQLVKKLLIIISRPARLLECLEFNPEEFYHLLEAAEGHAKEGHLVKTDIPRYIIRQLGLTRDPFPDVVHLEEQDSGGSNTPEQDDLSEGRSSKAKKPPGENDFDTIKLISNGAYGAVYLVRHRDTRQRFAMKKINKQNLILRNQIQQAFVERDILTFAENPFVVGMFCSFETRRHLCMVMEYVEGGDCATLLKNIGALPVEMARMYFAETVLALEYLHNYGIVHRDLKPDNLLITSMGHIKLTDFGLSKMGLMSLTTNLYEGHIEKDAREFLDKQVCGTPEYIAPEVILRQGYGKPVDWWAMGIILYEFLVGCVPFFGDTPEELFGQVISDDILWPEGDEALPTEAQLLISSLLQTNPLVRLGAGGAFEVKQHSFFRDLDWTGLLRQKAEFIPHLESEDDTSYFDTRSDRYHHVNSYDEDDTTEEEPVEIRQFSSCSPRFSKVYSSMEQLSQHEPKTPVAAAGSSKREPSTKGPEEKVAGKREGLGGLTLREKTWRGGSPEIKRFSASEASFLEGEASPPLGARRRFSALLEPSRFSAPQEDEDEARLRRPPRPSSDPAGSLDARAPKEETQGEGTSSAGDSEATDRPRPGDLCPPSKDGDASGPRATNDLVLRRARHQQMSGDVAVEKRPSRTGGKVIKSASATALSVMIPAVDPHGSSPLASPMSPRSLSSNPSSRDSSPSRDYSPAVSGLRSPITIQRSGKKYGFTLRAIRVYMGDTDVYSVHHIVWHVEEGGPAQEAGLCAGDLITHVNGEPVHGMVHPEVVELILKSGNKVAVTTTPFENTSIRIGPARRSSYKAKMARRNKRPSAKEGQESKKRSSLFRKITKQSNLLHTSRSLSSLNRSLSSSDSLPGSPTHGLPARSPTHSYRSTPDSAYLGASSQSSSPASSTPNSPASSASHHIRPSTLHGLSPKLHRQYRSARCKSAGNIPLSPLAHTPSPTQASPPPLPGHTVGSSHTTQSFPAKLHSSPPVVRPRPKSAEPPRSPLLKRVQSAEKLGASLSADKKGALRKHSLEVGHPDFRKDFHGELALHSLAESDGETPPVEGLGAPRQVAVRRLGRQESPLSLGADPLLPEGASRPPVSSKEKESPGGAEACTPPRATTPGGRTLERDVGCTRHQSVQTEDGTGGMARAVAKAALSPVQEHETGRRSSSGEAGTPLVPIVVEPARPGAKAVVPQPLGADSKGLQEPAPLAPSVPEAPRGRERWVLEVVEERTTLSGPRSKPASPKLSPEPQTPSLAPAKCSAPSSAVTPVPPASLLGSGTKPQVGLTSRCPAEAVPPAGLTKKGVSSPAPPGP
Data set [11] concerns the target Beta-2 adrenergic receptor (Homo sapiens, UniProt P07550). In words: Selectivity interaction (Panel of kinases, GPCRs, ion channels and transporters (enzymatic assay)) EUB0000223bCl ADRB2.
Data set [12] concerns the target T4, Tyrosine-protein kinase ZAP-70 (Homo sapiens) (UniProt P43403).
T4 sequence (whole entry): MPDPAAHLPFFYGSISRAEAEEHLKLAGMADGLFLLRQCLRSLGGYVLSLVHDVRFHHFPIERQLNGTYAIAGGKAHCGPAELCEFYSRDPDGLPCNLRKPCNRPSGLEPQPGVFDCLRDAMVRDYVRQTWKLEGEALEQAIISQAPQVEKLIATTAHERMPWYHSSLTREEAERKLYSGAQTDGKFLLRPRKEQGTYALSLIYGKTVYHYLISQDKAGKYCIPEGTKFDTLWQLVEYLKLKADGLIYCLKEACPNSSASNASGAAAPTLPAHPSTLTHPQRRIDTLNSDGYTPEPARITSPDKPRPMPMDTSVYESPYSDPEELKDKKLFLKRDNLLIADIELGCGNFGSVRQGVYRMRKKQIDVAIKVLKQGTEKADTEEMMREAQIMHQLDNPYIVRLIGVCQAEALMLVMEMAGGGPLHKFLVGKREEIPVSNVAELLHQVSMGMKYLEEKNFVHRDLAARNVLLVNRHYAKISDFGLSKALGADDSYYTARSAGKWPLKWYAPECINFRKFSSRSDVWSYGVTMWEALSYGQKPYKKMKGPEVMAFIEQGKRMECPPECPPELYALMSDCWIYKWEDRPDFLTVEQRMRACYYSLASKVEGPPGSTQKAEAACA
As to the kind of experiment: Selectivity interaction (KinomeScan (DiscoverX)) EUB0000092b ZAP70. Conditions: at 10 µM.

The target in data set [13] is T1, Phosphatidylinositol 5-phosphate 4-kinase type-2 gamma (Homo sapiens). As to the kind of experiment: Selectivity interaction (KinomeScan (DiscoverX)) EUB0000045b PIP4K2C. The settings on record: at 1 µM.
Data set [14] concerns the target Cyclin-dependent kinase 8 (Homo sapiens, UniProt P49336). As to the kind of experiment: Selectivity interaction (KinomeScan (DiscoverX)) EUB0000618a CDK8. The settings on record: at 10 µM.

Sequence of Beta-2 adrenergic receptor (P07550 whole entry, looked up): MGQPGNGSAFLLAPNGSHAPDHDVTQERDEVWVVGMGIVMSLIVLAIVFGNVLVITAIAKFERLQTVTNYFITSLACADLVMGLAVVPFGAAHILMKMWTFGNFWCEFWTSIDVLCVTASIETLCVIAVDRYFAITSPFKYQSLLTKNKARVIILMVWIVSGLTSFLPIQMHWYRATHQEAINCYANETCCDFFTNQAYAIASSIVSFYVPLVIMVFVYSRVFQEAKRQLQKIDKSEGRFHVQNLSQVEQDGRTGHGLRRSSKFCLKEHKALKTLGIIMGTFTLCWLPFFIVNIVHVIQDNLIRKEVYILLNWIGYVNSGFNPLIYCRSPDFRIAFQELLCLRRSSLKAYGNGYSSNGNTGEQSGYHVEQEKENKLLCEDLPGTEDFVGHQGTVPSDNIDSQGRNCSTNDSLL
Sequence of ALK tyrosine kinase receptor (Q9UM73 19-1620 limits assumed): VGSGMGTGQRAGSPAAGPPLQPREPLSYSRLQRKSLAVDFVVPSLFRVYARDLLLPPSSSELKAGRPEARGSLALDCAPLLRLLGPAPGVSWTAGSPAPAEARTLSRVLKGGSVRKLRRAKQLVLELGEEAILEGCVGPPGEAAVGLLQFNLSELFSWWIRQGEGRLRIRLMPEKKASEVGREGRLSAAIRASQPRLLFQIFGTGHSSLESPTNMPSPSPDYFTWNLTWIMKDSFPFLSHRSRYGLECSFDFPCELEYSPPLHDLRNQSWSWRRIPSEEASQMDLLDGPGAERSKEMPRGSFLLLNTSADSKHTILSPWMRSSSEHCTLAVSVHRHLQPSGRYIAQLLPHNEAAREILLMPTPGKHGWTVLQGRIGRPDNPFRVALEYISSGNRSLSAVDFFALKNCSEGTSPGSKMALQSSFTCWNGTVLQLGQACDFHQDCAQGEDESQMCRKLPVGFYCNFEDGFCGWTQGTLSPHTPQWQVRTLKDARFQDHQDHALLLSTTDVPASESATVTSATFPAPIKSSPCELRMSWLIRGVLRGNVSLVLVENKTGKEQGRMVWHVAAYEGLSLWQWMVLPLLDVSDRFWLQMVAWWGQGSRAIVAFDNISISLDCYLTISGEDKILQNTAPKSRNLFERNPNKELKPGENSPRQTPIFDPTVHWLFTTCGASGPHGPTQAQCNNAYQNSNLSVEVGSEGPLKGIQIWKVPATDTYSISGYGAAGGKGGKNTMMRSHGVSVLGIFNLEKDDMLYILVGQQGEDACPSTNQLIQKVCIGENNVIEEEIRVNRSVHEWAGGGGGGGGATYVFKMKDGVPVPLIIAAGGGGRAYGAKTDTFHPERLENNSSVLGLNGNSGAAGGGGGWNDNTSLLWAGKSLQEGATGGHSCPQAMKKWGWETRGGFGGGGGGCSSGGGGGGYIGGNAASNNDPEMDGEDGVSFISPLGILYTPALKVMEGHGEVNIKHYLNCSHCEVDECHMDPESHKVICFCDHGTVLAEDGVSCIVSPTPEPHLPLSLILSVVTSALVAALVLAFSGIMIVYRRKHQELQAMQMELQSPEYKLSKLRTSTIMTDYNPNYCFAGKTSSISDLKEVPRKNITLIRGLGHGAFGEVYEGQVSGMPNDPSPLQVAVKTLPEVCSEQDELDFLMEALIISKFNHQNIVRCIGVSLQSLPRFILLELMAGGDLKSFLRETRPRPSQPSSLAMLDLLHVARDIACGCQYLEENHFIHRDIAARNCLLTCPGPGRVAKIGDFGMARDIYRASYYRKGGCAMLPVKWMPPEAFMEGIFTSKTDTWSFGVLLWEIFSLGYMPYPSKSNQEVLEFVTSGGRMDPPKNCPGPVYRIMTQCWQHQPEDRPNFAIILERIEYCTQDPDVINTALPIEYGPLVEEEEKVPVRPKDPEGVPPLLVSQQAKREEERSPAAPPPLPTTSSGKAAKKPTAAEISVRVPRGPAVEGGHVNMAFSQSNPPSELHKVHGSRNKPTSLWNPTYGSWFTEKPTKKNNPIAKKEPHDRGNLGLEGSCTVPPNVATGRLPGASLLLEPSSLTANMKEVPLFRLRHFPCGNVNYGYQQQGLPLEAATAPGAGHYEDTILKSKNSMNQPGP
Sequence of Cyclin-dependent kinase 8 (P49336 whole entry): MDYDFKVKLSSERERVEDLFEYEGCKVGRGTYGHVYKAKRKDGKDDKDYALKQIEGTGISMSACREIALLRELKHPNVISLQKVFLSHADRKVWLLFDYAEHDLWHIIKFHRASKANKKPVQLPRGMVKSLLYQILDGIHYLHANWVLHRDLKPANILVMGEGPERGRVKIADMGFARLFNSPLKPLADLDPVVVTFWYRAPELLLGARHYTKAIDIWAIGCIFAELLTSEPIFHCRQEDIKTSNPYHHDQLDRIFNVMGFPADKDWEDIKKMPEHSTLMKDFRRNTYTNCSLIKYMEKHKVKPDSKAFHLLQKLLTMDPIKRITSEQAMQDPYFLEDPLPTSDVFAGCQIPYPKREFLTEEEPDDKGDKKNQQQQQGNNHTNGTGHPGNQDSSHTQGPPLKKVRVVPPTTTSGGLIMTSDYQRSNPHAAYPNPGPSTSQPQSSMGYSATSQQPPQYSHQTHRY

In the case of `CN(C)C/C=C/C(=O)Nc1ccc(C(=O)N2CCCC(Nc3ncc(Cl)c(-c4c[nH]c5ccccc45)n3)C2)cc1` (centres undefined), the % of control in data set [1] amounted to 84%; in [2], 91%.
`Cc1cc([C@@H](C)Nc2ccccc2C(=O)O)c2nc(N3CCOCC3)cc(=O)n2c1` [AZD-6482] returned a % of control in data set [3] of 100%.
As to `O=C(NOC[C@H](O)CO)c1ccc(F)c(F)c1Nc1ccc(I)cc1F`, the % of control in data set [4] amounted to 100%.
On to `COc1cc(N(C)c2ccnc3ccc(C(F)(F)F)cc23)cc(OC)c1OC`, for which the % binding in [5] worked out at 99%.
With `Nc1cnc(N2CCc3cc(S(=O)(=O)Nc4c(F)cc(Cl)cc4F)cc(N4CCCC4=O)c32)nc1` [TP-020n], in data set [6], the % of control amounted to 100%.
For `CCn1c(-c2nc3cc(C(=O)N4CCCC(N)C4)ccc3n2C)cc2ccccc21` (centres undefined), the XC50 on KCNE1 is above 25.1 µM.
In the case of `CC[C@@H]1[C@H](F)C(=O)N[C@@H]1COc1nccc2cc(C(N)=O)c(OC)cc12` [ZIMLOVISERTIB], the % of inhibition in data set [7] (at 0.01 µM) was -3.1%; in data set [7] (at 0.04 µM), 1.9%; in data set [7] (at 0.2 µM), -7.7%; in data set [7] (at 1 µM), -0.6%; in data set [7] (at 5 µM), -9%; in data set [8], -18.4%.
The molecule `CCN(CC)CCCCNc1ncc2cc(-c3cc(OC)cc(OC)c3)c(NC(=O)NC(C)(C)C)nc2n1` registered a % of control in data set [9] of 100%.
As to `COc1cc(Nc2nc(C)cc(-c3cnn4nc(OC)ccc34)n2)cc(C(F)(F)F)c1`, in data set [10], the % of control amounted to 100%.
For `COc1cc(C(=O)N2CC[C@@H](O)[C@@H](N)C2)cc2nc(-c3cc4ccccc4n3CC3CC3)n(C)c12`, in data set [11], the pXC50 was below 4.5 M.
In data set [12], `CCC(=O)N1CCN(c2ccc(-n3c(=O)ccc4cnc5ccc(-c6cnc7ccccc7c6)cc5c43)cc2C(F)(F)F)CC1` registered a % of control of 100%.
`C=CC(=O)Nc1cc(-n2c(=O)ccc3cnc4ccc(-c5ccc(NS(C)(=O)=O)cc5)cc4c32)ccc1C` had a % of control in [13] of 5.6%.
Take `O[C@H]1CC[C@H](Nc2ncc3nc(Nc4c(F)cc(F)cc4F)n([C@H]4CCOC4)c3n2)CC1`: the % of control in data set [14] worked out at 100%.
